{"source": "PubChem BioAssay AID1208", "about": "(EPA DSSTox, 2008)", "test_system": "rat chronic carcinogenicity bioassay, TD50", "assay": "DSSTox (CPDBAS) Carcinogenic Potency Database Summary Rat Bioassay Results", "conditions": "for outcome: TD50_Rat_Note: no positive results; for Potency: active compounds read low", "text": "The Carcinogenic Potency Database (CPDB) is a unique and widely used international resource of the results of over 6500 chronic, long-term animal cancer tests on over 1500 chemical substances. The CPDB provides easy access to the bioassay literature, with qualitative and quantitative analyses of both positive and negative experiments that have been published over the past 50 years in the general literature and by the National Cancer Institute/National Toxicology Program. The CPDB standardizes the diverse literature of cancer bioassays that vary widely in protocol, histopathological examination and nomenclature, and in the published author's choices of what information to provide in their papers. Results are reported in the CPDB for tests in rats, mice, hamsters, dogs, and nonhuman primates, and are based on the most positive result among all experiments for each sex-species. The DSSTox CPDBAS (all species) file incorporates data from the CPDB Summary Tables for the full list of over 1500 chemical substances tested in at least one species. Summary bioassay results for Rat (TD50, tumor sites, male, female, both sexes) are provided in the CPDB Summary Tables and the DSSTox CPDBAS file for over 1200 chemical substances.\nTD50 is a standardized quantitative measure of carcinogenic potency (analogous to an LD50) and is reported in the CPDB Summary Table for each species. Activity Score for actives is computed by mapping of LOG10 (1/TD50_Rat_mmol) activity values spanning range [MIN, MAX] onto Integer 1-100 Activity Score range, where 100 is highest potency and 1 is lowest: Activity Score = 100 * INTEGER[(log10(1/Activity) - MIN)/(MAX - MIN)]. If activity is reported but no TD50_Rat_mmol value is computed, such as for a mixture, the Activity Score is assigned the activity value \"50\". […] Target sites are reported for each sex-species group with a positive result in the CPDB on the basis of a positive author's opinion for the particular site, using all results from both the general literature and NCI/NTP bioassays. If a chemical has two or more target sites listed, the results may be from different experiments, and a single site may be a target organ in more than one experiment, as well. Blank entry in TargetSites field indicates no results reported.", "key": {"[1]": {"conditions": "TargetSites_Rat_Female: no positive results"}}, "note": "Activity calls are given as the source filed them.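 The calls were made as follows: active = at least one rat sex group has a carcinogenic potency value and tumor site recorded; inconclusive = only rat studies were judged inadequate by the national testing program; inactive = no potency or tumor site, with negative rat experiments.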", "data": [{"smiles": "COc1c(Cl)c(Cl)c([N+](=O)[O-])c(Cl)c1Cl", "values": [{"measurement": "outcome", "setting": "[1]", "value": "inactive; no positive results"}]}, {"smiles": "O=NN1CCCC1", "values": [{"measurement": "Potency", "setting": "TD50_Rat_Note: TD50 is harmonic mean of more than one positive test, harmonic mean of TD50 includes a value for upper 99% confidence li, TargetSites_Rat_Female: liver, vascular system", "value": 0.799, "unit": "mg/kg/day"}]}, {"smiles": "C[C@]12CC[C@H](O)CC1=CC[C@@H]1[C@@H]2CC[C@]2(C)C(=O)CC[C@@H]12", "values": [{"measurement": "Potency", "setting": "TD50_Rat_Note: TD50 is harmonic mean of more than one positive test, TargetSites_Rat_Female: liver", "value": 83.5, "unit": "mg/kg/day"}]}, {"smiles": "CCCCCN(N=O)C(=N)N[N+](=O)[O-]", "values": [{"measurement": "outcome", "value": "inactive; no positive results"}]}, {"smiles": "C=CCN(CC=C)N=O", "values": [{"measurement": "Potency", "setting": "TD50_Rat_Note: TD50 is harmonic mean of more than one positive test, TargetSites_Rat_Female: nasal cavity", "value": 33.9, "unit": "mg/kg/day"}]}, {"smiles": "O=C(NCC1CCCCN1)c1cc(OCC(F)(F)F)ccc1OCC(F)(F)F", "note": "(stereo not given)", "values": [{"measurement": "outcome", "setting": "[1]", "value": "inactive; no positive results"}]}, {"smiles": "ClCc1cccnc1", "values": [{"measurement": "Potency", "setting": "[1]", "value": 433, "unit": "mg/kg/day"}]}, {"smiles": "C=CC=O", "values": [{"measurement": "outcome", "setting": "[1]", "value": "inactive; no positive results"}]}, {"smiles": "CCOP(=O)=O.CCOP(=O)=O.CCOP(=O)=O.[Al+3]", "values": [{"measurement": "Potency", "setting": "[1]", "value": 3660, "unit": "mg/kg/day"}]}, {"smiles": "CN[C@H]1CC[C@@H](c2ccc(Cl)c(Cl)c2)c2ccccc21", "values": [{"measurement": "outcome", "setting": "[1]", "value": "inactive"}]}, {"smiles": "Cc1cc(C)c(S(=O)(=O)O)cc1N=Nc1cc(S(=O)(=O)O)c2ccccc2c1O", "values": [{"measurement": "Potency", "setting": "TD50_Rat_Note: TD50 is harmonic mean of more than one positive test, TargetSites_Rat_BothSexes: hematopoietic system", "value": 8110, "unit": "mg/kg/day"}]}, {"smiles": "CCCCCCCN", "values": [{"measurement": "outcome", "value": "inactive; no positive results"}]}, {"smiles": "CCNC(=O)Nc1ncc([N+](=O)[O-])s1", "values": [{"measurement": "Potency", "setting": "TargetSites_Rat_Female: mammary gland", "value": 131, "unit": "mg/kg/day"}]}, {"smiles": "Cc1ccc([N+](=O)[O-])cc1", "values": [{"measurement": "Potency", "setting": "TargetSites_Rat_Female: clitoral gland", "value": 257, "unit": "mg/kg/day"}]}, {"smiles": "CCOP(=S)(OCC)Oc1nc(Cl)c(Cl)cc1Cl", "values": [{"measurement": "outcome", "setting": "[1]", "value": "inactive; no positive results"}]}, {"smiles": "Cc1cc2c(nc1N)[nH]c1ccccc12", "values": [{"measurement": "Potency", "value": 6.7, "unit": "mg/kg/day"}]}, {"smiles": "Nc1c(Cl)c(Cl)nc(C(=O)O)c1Cl", "values": [{"measurement": "outcome", "setting": "[1]", "value": "inactive; no positive results"}]}, {"smiles": "C[C@@H]1C[C@H](C)CN(S(=O)(=O)c2ccc(Cl)c(C(=O)O)c2)C1", "values": [{"measurement": "Potency", "value": 4.85, "unit": "mg/kg/day"}]}, {"smiles": "O=C(O)c1cc(O)c(O)c(O)c1", "values": [{"measurement": "outcome", "value": "inactive; no positive results"}]}, {"smiles": "CC(C)(c1ccc(O)cc1)c1ccc(O)cc1", "values": [{"measurement": "outcome", "setting": "[1]", "value": "inactive; no positive results"}]}, {"smiles": "O=P(OCC(Br)CBr)(OCC(Br)CBr)OCC(Br)CBr", "note": "(stereo not given)", "values": [{"measurement": "Potency", "setting": "TD50_Rat_Note: TD50 is harmonic mean of more than one positive test, TargetSites_Rat_Female: kidney", "value": 3.83, "unit": "mg/kg/day"}]}, {"smiles": "O.O.O.O.O.O.O.O=S(=O)([O-])[O-].[Co+2]", "values": [{"measurement": "Potency", "setting": "TD50_Rat_Note: TD50 is harmonic mean of more than one positive test, TargetSites_Rat_Female: adrenal gland, lung", "value": 0.137, "unit": "mg/kg/day"}]}, {"smiles": "CC(=O)CN(N=O)C(N)=O", "values": [{"measurement": "outcome", "setting": "[1]", "value": "inactive; no positive results"}]}, {"smiles": "NNC(N)=S", "values": [{"measurement": "outcome", "setting": "[1]", "value": "inactive"}]}, {"smiles": "CC(O)CN(C)N=O", "note": "(stereo not given)", "values": [{"measurement": "Potency", "setting": "TD50_Rat_Note: TD50 is harmonic mean of more than one positive test, TargetSites_Rat_Female: esophagus, nasal cavity", "value": 0.0463, "unit": "mg/kg/day"}]}, {"smiles": "Oc1cc2c(cc1O)[C@H]1c3ccc(O)c(O)c3OC[C@@]1(O)C2", "values": [{"measurement": "Potency", "setting": "TargetSites_Rat_BothSexes: hematopoietic system", "value": 1000, "unit": "mg/kg/day"}]}, {"smiles": "ClCC1CO1", "note": "(stereo not given)", "values": [{"measurement": "Potency", "setting": "TD50_Rat_Note: TD50 is harmonic mean of more than one positive test, TargetSites_Rat_Female: stomach", "value": 2.96, "unit": "mg/kg/day"}]}, {"smiles": "Nc1ccc(S(=O)(=O)c2ccc(N)cc2)cc1", "values": [{"measurement": "Potency", "setting": "[1]", "value": 22.4, "unit": "mg/kg/day"}]}, {"smiles": "CC[N+](=O)[O-]", "values": [{"measurement": "outcome", "setting": "[1]", "value": "inactive; no positive results"}]}, {"smiles": "O=C(O)CC(O)(CC(=O)O)C(=O)O", "values": [{"measurement": "outcome", "value": "inactive; no positive results"}]}, {"smiles": "O=C1CCCCCN1", "values": [{"measurement": "outcome", "setting": "[1]", "value": "inactive; no positive results"}]}, {"smiles": "CCN(Cc1cccc(S(=O)(=O)O)c1)c1ccc(C(=C2C=CC(=[N+](CC)Cc3cccc(S(=O)(=O)O)c3)C=C2)c2ccccc2S(=O)(=O)[O-])cc1", "values": [{"measurement": "outcome", "setting": "TargetSites_Rat_BothSexes: no positive results", "value": "inactive"}]}, {"smiles": "CC1(C)[C@H](C(=O)O[C@H](C#N)c2cccc(Oc3ccccc3)c2)[C@@H]1C=C(Br)Br", "values": [{"measurement": "outcome", "setting": "[1]", "value": "inactive; no positive results"}]}, {"smiles": "NCCCC(N)(C(=O)O)C(F)F", "note": "(stereo not given)", "values": [{"measurement": "outcome", "setting": "[1]", "value": "inactive; no positive results"}]}, {"smiles": "CN1C(=O)CN=C(c2ccccc2)c2cc(Cl)ccc21", "values": [{"measurement": "outcome", "setting": "[1]", "value": "inactive; no positive results"}]}, {"smiles": "CBr", "values": [{"measurement": "outcome", "setting": "[1]", "value": "inactive; no positive results"}]}, {"smiles": "Nc1nc(N)nc(-c2cc(Cl)ccc2Cl)n1", "values": [{"measurement": "outcome", "value": "inactive; no positive results"}]}, {"smiles": "CCn1nc(C)c2c1C(c1ccccc1)=NCC(=O)N2", "values": [{"measurement": "outcome", "setting": "[1]", "value": "inactive; no positive results"}]}, {"smiles": "CC(O)CN(CC(O)CO)N=O", "note": "(stereo not given)", "values": [{"measurement": "Potency", "setting": "TargetSites_Rat_Female: esophagus, oral cavity, stomach", "value": 0.0535, "unit": "mg/kg/day"}]}, {"smiles": "NC(N)=O", "values": [{"measurement": "outcome", "setting": "[1]", "value": "inactive; no positive results"}]}]}
